Results taken from article PMC3069055, “Structural Asymmetry of Phosphodiesterase-9, Potential Protonation of a Glutamic Acid, and Role of the Invariant Glutamine” (PLoS ONE, 2011).
“And” between values parts separate entries of the source, which are not always exact repeats. Equal entries are not always repeated. Where two headings read alike, the source gives them in different places.

Legend:
[1] = target: T1, PDE9A2 Q453E mutant (PDE9Q453E) (Homo sapiens, UniProt O76083, Q513E); test: PDE9A2 enzymatic assay, IC50 of inhibitors (3H-cGMP substrate); assay type: biochemical
T1 construct: The catalytic domain of the PDE9Q453E mutant (10–15 mg/mL, amino acids 181–506); made in house; host or cells: E. coli BL21 (Codonplus)
Protocol: (§1) Each measurement was repeated two times. The reaction was carried out at room temperature for 15 min and then terminated by the addition of 0.2 M ZnSO4 and 0.2 M Ba(OH)2. […] Vmax and KM values were calculated by nonlinear regression on the curve of velocity versus substrate concentration and also by Eadie-Hofstee plot. […] The IC50 values were calculated by nonlinear regression.

PDE9A2 E406A mutant [2] = target: T2, PDE9A2 E406A mutant (Homo sapiens, UniProt O76083, E466A); test: as above; assay type: biochemical
T2 construct: The coding region for residues 181-506 of PDE9A2 was amplified by PCR; inferred from vector pET15b and Ni-NTA purification) (N); made in house; host or cells: E. coli BL21 (Codonplus)
Protocol: as §1

[3] = target: T3, wild type PDE9A2 catalytic domain (Homo sapiens, UniProt O76083); test: as above; assay type: biochemical
T3 construct: The coding region for residues 181-506 of PDE9A2 was amplified by PCR; inferred from vector pET15b and Ni-NTA purification) (N); made in house; host or cells: E. coli BL21 (Codonplus)
Protocol: as §1

PDE9A2 E406A mutant [4] = target: T2, PDE9A2 E406A mutant; test: Enzymatic assay, kinetic parameters with cAMP and cGMP as substrates; assay type: biochemical
Protocol: as §1

[5] = target: T1, PDE9A2 Q453E mutant (PDE9Q453E); test: as above; assay type: biochemical
Protocol: as §1

[6] = target: T3, wild type PDE9A2 catalytic domain; test: as above; assay type: biochemical; settings: substrate
Protocol: as §1

PDE5A Q817A mutant = settings: PDE5A Q817A versus wild type; cited from earlier work
[7] = target: the molecule itself; test: crystal structure; PDE9Q453E catalytic domain (10-15 mg/mL) co-crystallised with 2 mM IBMX, hanging drop, 2.0 M Na formate, 0.1 M HEPES pH 7.5, 5% xylitol, 4°C; (S)-BAY73-6691 complex by soaking; two molecules in the asymmetric unit
[8] = E406A compared with wild type enzyme

T3 sequence (O76083 241-566): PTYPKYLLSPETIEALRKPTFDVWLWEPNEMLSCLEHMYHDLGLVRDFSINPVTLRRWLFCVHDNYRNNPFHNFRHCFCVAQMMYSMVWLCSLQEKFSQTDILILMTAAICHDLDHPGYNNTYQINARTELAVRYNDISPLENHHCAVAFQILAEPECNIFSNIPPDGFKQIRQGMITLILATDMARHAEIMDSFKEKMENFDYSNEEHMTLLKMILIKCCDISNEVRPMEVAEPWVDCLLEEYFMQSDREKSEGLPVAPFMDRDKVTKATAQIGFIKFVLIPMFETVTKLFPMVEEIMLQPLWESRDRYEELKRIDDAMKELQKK
T2 sequence (O76083 241-566 E466A): as the sequence (O76083 241-566) above, with E226A counted along it

C[C@@H](Cc1nc2c(cnn2-c2ccccc2Cl)c(=O)[nH]1)C(F)(F)F [(S)-BAY73-6691, 1-(2-chlorophenyl)-6-(3,3,3-trifluoro-2-methylpropyl)-1H-pyrazolo [3,4-d]pyrimidin-4(5H)-one]
fold increase of IC50 (affinity decrease), Q453E mutant versus wild type ([1]; Q453E IC50 relative to wild type IC50): > 1800 fold and 1800 fold

CC(C)Cn1c(=O)n(C)c(=O)c2[nH]cnc21 [IBMX, 3-isobutyl-1-methylxanthine]
IC50 (PDE9A2 E406A mutant [2]): 31.7 ± 1.1 µM
IC50 [3]: 53.9 ± 1.1 µM

CCCOc1ccccc1-c1nc2nn[nH]c2c(=O)[nH]1 [Zaprinast]
IC50 (PDE9A2 E406A mutant [2]; E406A mutant, 30 nM 3H-cGMP, read-out: IC50): 7.6 ± 1.1 µM
IC50 ([1]; Q453E mutant, 30 nM 3H-cGMP): 53.7 ± 1.2 µM
IC50 ([3]; wild type enzyme, 30 nM 3H-cGMP, read-out: IC50): 15.9 ± 1.2 µM

Nc1nc2c(ncn2[C@@H]2O[C@@H]3COP(=O)(O)O[C@H]3[C@H]2O)c(=O)[nH]1 [cGMP]
fold reduction of apparent affinity, E406A versus wild type (PDE9A2 E406A mutant [4]; [8]): 2 fold
fold reduction of catalytic activity, E406A versus wild type (PDE9A2 E406A mutant [4]; [8]): 2 fold
Km (PDE9A2 E406A mutant [4]; E406A, substrate): 0.311 ± 0.04 µM
Vmax (PDE9A2 E406A mutant [4]; E406A, substrate): 0.129 ± 0.004 µmol/mg/min
kcat (PDE9A2 E406A mutant [4]; E406A, substrate): 0.08±0.00 S^−1
fold loss of enzymatic efficacy kcat/KM, Q453E versus wild type ([5]; Q453E compared with wild type enzyme): about 50 fold
Km ([5]; Q453E, substrate): 2.8 ± 0.18 µM
Vmax ([5]; Q453E, substrate): 0.139 ± 0.003 µmol/mg/min
kcat ([5]; Q453E, substrate): 0.09±0.00 S^−1
Km [6]: 0.113 ± 0.013 µM
Vmax [6]: 0.285 ± 0.008 µmol/mg/min
kcat [6]: 0.18±0.00 S^−1
fold reduction of cGMP affinity by Q817A mutation (PDE5A Q817A mutant): about 60 fold

B1: catalytic domain of the PDE9A2 Q453E mutant (amino acids 181-506) (domain or fragment, human, UniProt O76083-2 181-506, looked up)
chain: PTYPKYLLSPETIEALRKPTFDVWLWEPNEMLSCLEHMYHDLGLVRDFSINPVTLRRWLFCVHDNYRNNPFHNFRHCFCVAQMMYSMVWLCSLQEKFSQTDILILMTAAICHDLDHPGYNNTYQINARTELAVRYNDISPLENHHCAVAFQILAEPECNIFSNIPPDGFKQIRQGMITLILATDMARHAEIMDSFKEKMENFDYSNEEHMTLLKMILIKCCDISNEVRPMEVAEPWVDCLLEEYFMQSDREKSEGLPVAPFMDRDKVTKATAEIGFIKFVLIPMFETVTKLFPMVEEIMLQPLWESRDRYEELKRIDDAMKELQKK
notes: phosphodiesterase 9A, isoform PDE9A2, human, catalytic domain, residues 181-506, GenBank BC009047; numbers count on: PDE9A2; also called PDE9Q453E; PDE9 Q453E mutant; source: E. coli BL21 (Codonplus), purified (Ni-NTA, Q-Sepharose, Sephacryl S300)
binding result [7]: binds
